In ChEMBL document CHEMBL3885861, “Open TG-GATES”:

Species on record: Rattus norvegicus
Test: Open TG-GATES - Regimen: Daily Repeat
Format: toxicity, organism-based, Sprague-Dawley
Set-up: regimen Daily Repeat, gender Male, age 6 weeks
Details: in vivo, po, 150 mg/kg, route gavage, dose level Middle; for APTT / Bas / Eos / Fbg / Hb / Ht / Lym / MCH / MCHC / MCV / Mono / Neu / PT / Plat / RBC / Ret / WBC: tissue Blood; for KIDNEY_L / KIDNEY_R / KIDNEY_TOTAL: tissue Kidney; for LIVER: tissue Liver; for A/G / ALP / ALT / AST / BUN / CRE / Ca / Cl / DBIL / GLC / IP / K / LDH / Na / PL / RALB / TBIL / TC / TG / TP / gamma-GTP: tissue Plasma

CN1C(=O)OC(C)(C)C1=O [TRIMETHADIONE]
TERMINAL_BW (72 h, time 3 day): 237.3 g | APTT (72 h, time 3 day): 16.6 s | Bas (72 h, time 3 day): 0% | Eos (72 h, time 3 day): 1.2% | Fbg (72 h, time 3 day): 277.6 mg/dL | Hb (72 h, time 3 day): 13.9 g/dL | Ht (72 h, time 3 day): 41.2% | Lym (72 h, time 3 day): 73.4% | MCH (72 h, time 3 day): 22 pg | MCHC (72 h, time 3 day): 33.7% | MCV (72 h, time 3 day): 65.2 fL | Mono (72 h, time 3 day): 2.8% | Neu (72 h, time 3 day): 22.6% | PT (72 h, time 3 day): 13 s | Plat (72 h, time 3 day): 127.9 x10_4/uL | RBC (72 h, time 3 day): 632 x10_4/ul | Ret (72 h, time 3 day): 6.9% | WBC (72 h, time 3 day): 82.5 x10_2/uL | KIDNEY_L (72 h, time 3 day): 1 g | KIDNEY_R (72 h, time 3 day): 0.9 g | KIDNEY_TOTAL (72 h, time 3 day): 1.9 g | LIVER (72 h, time 3 day): 11.2 g | A/G (72 h, time 3 day): 0.8 | ALP (72 h, time 3 day): 1577 IU/L | ALT (72 h, time 3 day): 42.4 IU/L | AST (72 h, time 3 day): 78.2 IU/L | BUN (72 h, time 3 day): 17.2 mg/dL | CRE (72 h, time 3 day): 0.2 mg/dL | Ca (72 h, time 3 day): 11.2 mg/dL | Cl (72 h, time 3 day): 105 meq/L | DBIL (72 h, time 3 day): 0.004 mg/dL | GLC (72 h, time 3 day): 180.6 mg/dL | IP (72 h, time 3 day): 6.9 mg/dL | K (72 h, time 3 day): 4.4 meq/L | LDH (72 h, time 3 day): 85.6 IU/L | Na (72 h, time 3 day): 142.2 meq/L | PL (72 h, time 3 day): 172.8 mg/dL | RALB (72 h, time 3 day): 2.6 g/dL | TBIL (72 h, time 3 day): 0.042 mg/dL | TC (72 h, time 3 day): 91.4 mg/dL | TG (72 h, time 3 day): 115.6 mg/dL | TP (72 h, time 3 day): 5.7 g/dL | gamma-GTP (72 h, time 3 day): 1 IU/L | TERMINAL_BW ([…], time 7 day): 275.1 g | TERMINAL_BW ([…], time 14 day): 335.8 g | TERMINAL_BW ([…], time 28 day): 410.9 g | APTT ([…], time 7 day): 22.2 s | Bas ([…], time 7 day): 0% | Eos ([…], time 7 day): 1% | Fbg ([…], time 7 day): 283.8 mg/dL | Hb ([…], time 7 day): 13.8 g/dL | Ht ([…], time 7 day): 40.4% | Lym ([…], time 7 day): 75% | MCH ([…], time 7 day): 21.5 pg | MCHC ([…], time 7 day): 34.1% | MCV ([…], time 7 day): 62.9 fL | Mono ([…], time 7 day): 2.6% | Neu ([…], time 7 day): 21.2% | PT ([…], time 7 day): 13.9 s | Plat ([…], time 7 day): 129.5 x10_4/uL | RBC ([…], time 7 day): 642.6 x10_4/ul | Ret ([…], time 7 day): 5.6% | WBC ([…], time 7 day): 92.5 x10_2/uL | APTT ([…], time 14 day): 25.9 s | Bas ([…], time 14 day): 0.2% | Eos ([…], time 14 day): 1% | Fbg ([…], time 14 day): 268.4 mg/dL | Hb ([…], time 14 day): 14.4 g/dL | Ht ([…], time 14 day): 41.6% | Lym ([…], time 14 day): 71.6% | MCH ([…], time 14 day): 20.8 pg | MCHC ([…], time 14 day): 34.6% | MCV ([…], time 14 day): 60.2 fL | Mono ([…], time 14 day): 2.2% | Neu ([…], time 14 day): 24.6% | PT ([…], time 14 day): 13.6 s | Plat ([…], time 14 day): 123.5 x10_4/uL | RBC ([…], time 14 day): 691.2 x10_4/ul | Ret ([…], time 14 day): 4.5% | WBC ([…], time 14 day): 132.8 x10_2/uL | APTT ([…], time 28 day): 21.9 s | Bas ([…], time 28 day): 0% | Eos ([…], time 28 day): 1.2% | Fbg ([…], time 28 day): 270.8 mg/dL | Hb ([…], time 28 day): 15.8 g/dL | Ht ([…], time 28 day): 45% | Lym ([…], time 28 day): 74.8% | MCH ([…], time 28 day): 19.6 pg | MCHC ([…], time 28 day): 35% | MCV ([…], time 28 day): 56.2 fL | Mono ([…], time 28 day): 2% | Neu ([…], time 28 day): 21.8% | PT ([…], time 28 day): 14.3 s | Plat ([…], time 28 day): 113.7 x10_4/uL | RBC ([…], time 28 day): 800.2 x10_4/ul | Ret ([…], time 28 day): 2% | WBC ([…], time 28 day): 103.2 x10_2/uL | KIDNEY_L ([…], time 7 day): 1.3 g | KIDNEY_R ([…], time 7 day): 1.2 g | KIDNEY_TOTAL ([…], time 7 day): 2.5 g | KIDNEY_L ([…], time 14 day): 1.4 g | KIDNEY_R ([…], time 14 day): 1.4 g | KIDNEY_TOTAL ([…], time 14 day): 2.8 g | KIDNEY_L ([…], time 28 day): 1.6 g | KIDNEY_R ([…], time 28 day): 1.7 g | KIDNEY_TOTAL ([…], time 28 day): 3.3 g | LIVER ([…], time 7 day): 13 g | LIVER ([…], time 14 day): 15.2 g | LIVER ([…], time 28 day): 16.5 g | A/G ([…], time 7 day): 0.9 | ALP ([…], time 7 day): 1744.2 IU/L | ALT ([…], time 7 day): 51.6 IU/L | AST ([…], time 7 day): 85.6 IU/L | BUN ([…], time 7 day): 15.8 mg/dL | CRE ([…], time 7 day): 0.2 mg/dL | Ca ([…], time 7 day): 10.8 mg/dL | Cl ([…], time 7 day): 103.4 meq/L | DBIL ([…], time 7 day): 0.01 mg/dL | GLC ([…], time 7 day): 192.6 mg/dL | IP ([…], time 7 day): 6.9 mg/dL | K ([…], time 7 day): 4.2 meq/L | LDH ([…], time 7 day): 92.4 IU/L | Na ([…], time 7 day): 144.2 meq/L | PL ([…], time 7 day): 159.8 mg/dL | RALB ([…], time 7 day): 2.6 g/dL | TBIL ([…], time 7 day): 0.04 mg/dL | TC ([…], time 7 day): 74.2 mg/dL | TG ([…], time 7 day): 138.2 mg/dL | TP ([…], time 7 day): 5.7 g/dL | gamma-GTP ([…], time 7 day): 1.2 IU/L | A/G ([…], time 14 day): 0.8 | ALP ([…], time 14 day): 1516.8 IU/L | ALT ([…], time 14 day): 46.8 IU/L | AST ([…], time 14 day): 73.2 IU/L | BUN ([…], time 14 day): 16.4 mg/dL | CRE ([…], time 14 day): 0.2 mg/dL | Ca ([…], time 14 day): 10.7 mg/dL | Cl ([…], time 14 day): 102.6 meq/L | DBIL ([…], time 14 day): 0.004 mg/dL | GLC ([…], time 14 day): 180.6 mg/dL | IP ([…], time 14 day): 6.6 mg/dL | K ([…], time 14 day): 4.2 meq/L | LDH ([…], time 14 day): 116.4 IU/L | Na ([…], time 14 day): 144.2 meq/L | PL ([…], time 14 day): 154.4 mg/dL | RALB ([…], time 14 day): 2.7 g/dL | TBIL ([…], time 14 day): 0.032 mg/dL | TC ([…], time 14 day): 73.2 mg/dL | TG ([…], time 14 day): 138.8 mg/dL | TP ([…], time 14 day): 6.2 g/dL | gamma-GTP ([…], time 14 day): 1 IU/L | A/G ([…], time 28 day): 0.8 | ALP ([…], time 28 day): 1150.5 IU/L | ALT ([…], time 28 day): 37.8 IU/L | AST ([…], time 28 day): 77.5 IU/L | BUN ([…], time 28 day): 16 mg/dL | CRE ([…], time 28 day): 0.3 mg/dL | Ca ([…], time 28 day): 10.4 mg/dL | Cl ([…], time 28 day): 101.8 meq/L | DBIL ([…], time 28 day): 0.005 mg/dL | GLC ([…], time 28 day): 170.8 mg/dL | IP ([…], time 28 day): 5.5 mg/dL | K ([…], time 28 day): 4.1 meq/L | LDH ([…], time 28 day): 77.2 IU/L | Na ([…], time 28 day): 143 meq/L | PL ([…], time 28 day): 161 mg/dL | RALB ([…], time 28 day): 2.7 g/dL | TBIL ([…], time 28 day): 0.0325 mg/dL | TC ([…], time 28 day): 76.8 mg/dL | TG ([…], time 28 day): 146.8 mg/dL | TP ([…], time 28 day): 6.2 g/dL | gamma-GTP ([…], time 28 day): 1.2 IU/L
